According to patent US20260085062A1, “NOVEL COMPOUNDS AS CK2 INHIBITORS” (Cambridge Enterprise Limited, priority 2022, published 2026):
pIC50: −log10 of the molar value.

Columns and labels:
[1] = molecular target: T1, CK2α (Homo sapiens, UniProt P68400); experiment: Biochemical assay for inhibitors of CK2α kinase activity (ADP-Glo); conditions: 0.2 nM CK2α, 50 μM peptide substrate, 15 μM ATP, read-out: Assay 1: CK2α Enzyme IC50
T1 construct: CK2α (residues 2-329) was produced in Escherichia coli BL21 (DE3) for kinase activity screening; His6 (N, cleaved yes); made in house; host or cells: Escherichia coli BL21 (DE3)
T1 sequence (P68400 2-329): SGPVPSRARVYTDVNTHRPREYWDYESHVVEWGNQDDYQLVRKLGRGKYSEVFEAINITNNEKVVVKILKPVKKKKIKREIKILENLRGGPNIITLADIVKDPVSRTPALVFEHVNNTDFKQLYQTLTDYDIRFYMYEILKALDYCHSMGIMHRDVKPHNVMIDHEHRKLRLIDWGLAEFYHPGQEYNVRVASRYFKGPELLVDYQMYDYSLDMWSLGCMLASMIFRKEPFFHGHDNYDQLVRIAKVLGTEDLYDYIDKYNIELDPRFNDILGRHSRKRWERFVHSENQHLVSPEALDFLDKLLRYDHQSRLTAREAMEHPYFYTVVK

[2] = molecular target: T2, CLK2 (Homo sapiens, UniProt P49760); experiment: Biochemical assay for inhibitors of CLK2 kinase activity (ADP-Glo); conditions: 20 nM CLK2, 50 μM peptide substrate, 100 μM ATP, read-out: Assay 2: CLK2 Enzyme IC50
T2 construct: purchased Carna Biosciences 04-127

[3] = molecular target: T3, intracellular CK2α (Homo sapiens, UniProt P19784); experiment: Cell-based NanoBRET assay for inhibitor binding to intracellular CK2α; conditions: HCT116 cells transiently transfected with CSNK2A2-NanoLuc fusion vector; Tracer K-5; 2 h; read-out: Assay 3: NanoBRET ™ assay for binding to intracellular CK2α
T3 construct: host or cells: HCT116 (ATCC CCL-247)
How it was run: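 Living cells expressing NanoLuc-CK2α fusion were given a fixed tracer concentration, and compounds competitively displaced the reversibly bound tracer. Donor (450 nm) and acceptor (610 or 630 nm) emissions were read; BRET ratio = (acceptor/donor)×1,000, giving apparent intracellular affinity.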

T2 sequence (P49760 whole entry): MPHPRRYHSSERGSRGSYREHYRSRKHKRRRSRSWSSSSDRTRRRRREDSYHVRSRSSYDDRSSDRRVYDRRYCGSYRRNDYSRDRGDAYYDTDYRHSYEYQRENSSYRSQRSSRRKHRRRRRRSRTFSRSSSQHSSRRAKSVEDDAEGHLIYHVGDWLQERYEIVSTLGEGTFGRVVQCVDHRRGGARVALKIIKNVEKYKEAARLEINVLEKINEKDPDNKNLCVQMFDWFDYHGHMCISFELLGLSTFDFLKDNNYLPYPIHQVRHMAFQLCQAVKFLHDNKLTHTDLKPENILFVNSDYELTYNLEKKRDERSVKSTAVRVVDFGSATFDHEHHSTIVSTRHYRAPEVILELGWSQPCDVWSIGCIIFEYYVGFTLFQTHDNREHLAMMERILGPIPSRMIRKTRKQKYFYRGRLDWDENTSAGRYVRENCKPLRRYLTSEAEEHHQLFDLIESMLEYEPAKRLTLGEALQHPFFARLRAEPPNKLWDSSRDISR
T3 sequence (P19784 whole entry, the tested form may be a part): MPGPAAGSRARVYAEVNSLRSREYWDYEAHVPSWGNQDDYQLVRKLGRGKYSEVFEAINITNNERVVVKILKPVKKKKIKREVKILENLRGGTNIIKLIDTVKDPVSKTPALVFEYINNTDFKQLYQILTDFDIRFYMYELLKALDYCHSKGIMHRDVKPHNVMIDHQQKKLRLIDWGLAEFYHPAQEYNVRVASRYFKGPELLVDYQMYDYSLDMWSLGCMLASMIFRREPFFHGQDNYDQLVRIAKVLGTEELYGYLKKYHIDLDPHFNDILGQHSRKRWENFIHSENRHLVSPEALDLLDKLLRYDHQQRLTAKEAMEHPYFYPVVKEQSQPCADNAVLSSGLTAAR

Cc1nncn1-c1cc(NCCOCCCCNCc2cc3cc(C(F)(F)F)ccc3[nH]2)c2cn[nH]c2c1 [Example 86, 6-(3-methyl-4H-1,2,4-triazol-4-yl)-N-(2-(4-(((5-(trifluoromethyl)-1H-indol-2-yl)methyl)amino)butoxy)ethyl)-1H-indazol-4-amine] showed a pIC50 [1] of 8.20, a pIC50 [2] of 5.78 and a pIC50 [3] of 5.87.

In the case of N#CCc1cc(CNCCCCOC2CN(c3cc(-c4cnoc4)cc4[nH]ncc34)C2)cc(OC(F)(F)F)c1 [Example 146, 2-(3-(((4-((1-(6-(isoxazol-4-yl)-1H-indazol-4-yl)azetidin-3-yl)oxy)butyl)amino)methyl)-5-(trifluoromethoxy)phenyl)acetonitrile], the pIC50 [1] was 8.09, the pIC50 [2] was 6.82 and the pIC50 [3] was 6.52.

FC(F)(F)c1ccc2[nH]c(CNCCCCOC3CN(c4cc(-c5ccnnc5)cc5[nH]nnc45)C3)cc2c1 [Example 149, 4-((1-(6-(pyridazin-4-yl)-1H-benzo[d][1,2,3]triazol-4-yl)azetidin-3-yl)oxy)-N-((5-(trifluoromethyl)-1H-indol-2-yl)methyl)butan-1-amine] was tested, and the pIC50 [1] was 6.59, the pIC50 [2] was 4.82 and the pIC50 [3] was < 4.30.

Compound O=C(CCNCc1ccc(-c2ccccc2)c(Cl)c1)NCCCNc1cc(C2COC2)cc2[nH]ncc12 [Example 81, 3-(((2-chloro-[1,1′-biphenyl]-4-yl)methyl)amino)-N-(3-((6-(oxetan-3-yl)-1H-indazol-4-yl)amino)propyl)propanamide] has a pIC50 [1] of 8.13, a pIC50 [2] of 6.16 and a pIC50 [3] of 6.09.

O=C(CCNCc1ccc(OC(F)(F)F)c(Cl)c1)NCCCNc1cc(-c2cc[nH]c(=O)c2)cc2[nH]ncc12 [Example 31, 3-((3-chloro-4-(trifluoromethoxy)benzyl)amino)-N-(3-((6-(2-oxo-1,2-dihydropyridin-4-yl)-1H-indazol-4-yl)amino)propyl)propanamide] gave a pIC50 [1] of 9.49, a pIC50 [2] of 6.28 and a pIC50 [3] of 6.12.

Work on COc1cc(-c2cc(NCCCNC(=O)CCNCc3ccc(-c4ccccc4)c(Cl)c3)c3cn[nH]c3c2)ccn1 [Example 22, 3-(((2-Chloro-[1,1′-biphenyl]-4-yl)methyl)amino)-N-(3-((6-(2-methoxypyridin-4-yl)-1H-indazol-4-yl)amino)propyl)propanamide] yielded a pIC50 [1] of 8.87, a pIC50 [2] of 5.95 and a pIC50 [3] of 6.44.

Work on FC(F)(F)c1ccc2[nH]c(CNCCCCOCCOc3cc(-c4cnoc4)cc4[nH]ncc34)cc2c1 [Example 144, 4-(2-((6-(isoxazol-4-yl)-1H-indazol-4-yl)oxy)ethoxy)-N-((5-(trifluoromethyl)-1H-indol-2-yl)methyl)butan-1-amine] yielded a pIC50 [1] of 8.33, a pIC50 [2] of 6.57 and a pIC50 [3] of 6.46.

For Cc1cn(-c2cc(NCCCNC(=O)CCNCc3ccc(-c4ccccc4)c(Cl)c3)c3cn[nH]c3c2)cn1 [Example 29, 3-(((2-chloro-[1,1′-biphenyl]-4-yl)methyl)amino)-N-(3-((6-(4-methyl-1H-imidazol-1-yl)-1H-indazol-4-yl)amino)propyl)propanamide], the pIC50 [1] was 7.65, the pIC50 [2] was 6.19 and the pIC50 [3] was 5.68.

O=C(CCNCc1ccc(OC(F)(F)F)c(Cl)c1)NCCCNc1cc(-c2ncon2)cc2[nH]ncc12 [Example 189, N-(3-((6-(1,2,4-oxadiazol-3-yl)-1H-indazol-4-yl)amino)propyl)-3-((3-chloro-4-(trifluoromethoxy)benzyl)amino)propanamide] was tested, and the pIC50 [1] was 7.72, the pIC50 [2] was 5.46 and the pIC50 [3] was 5.79.

With O=C(O)Cc1cc(NCCOCCCCNCc2cc(F)c(OC(F)(F)F)c(F)c2)c2cn[nH]c2c1 [Example 198, 2-(4-((2-(4-((3,5-difluoro-4-(trifluoromethoxy)benzyl)amino)butoxy)ethyl)amino)-1H-indazol-6-yl)acetic acid] the pIC50 [1] was 7.14, the pIC50 [2] was < 4.30 and the pIC50 [3] was < 5.52.

In the case of Fc1cc(CNCCCCOCCNc2cc(-c3ccncc3)c(F)c3[nH]ncc23)cc(F)c1OC(F)(F)F [Example 176, N-(2-(4-((3,5-difluoro-4-(trifluoromethoxy)benzyl)amino)butoxy)ethyl)-7-fluoro-6-(pyridin-4-yl)-1H-indazol-4-amine], the pIC50 [1] was 8.22, the pIC50 [2] was 6.48 and the pIC50 [3] was 6.66.

Compound N#CCc1cc(CNCCCCOC2CN(c3cc(-c4ccnnc4)cc4[nH]ncc34)C2)cc(OC(F)(F)F)c1 [Example 134, 2-(3-(((4-((1-(6-(pyridazin-4-yl)-1H-indazol-4-yl)azetidin-3-yl)oxy)butyl)amino)methyl)-5-(trifluoromethoxy)phenyl)acetonitrile] has a pIC50 [1] of 8.28, a pIC50 [2] of 5.57 and a pIC50 [3] of 6.09.

O=C(CCNCc1ccc(OC(F)(F)F)c(Cl)c1)NCCCNc1cc(-c2nnco2)cc2[nH]ncc12 [Example 157, N-(3-((6-(1,3,4-oxadiazol-2-yl)-1H-indazol-4-yl)amino)propyl)-3-((3-chloro-4-(trifluoromethoxy)benzyl)amino)propanamide] was tested, and the pIC50 [1] was 8.04, the pIC50 [2] was 5.78 and the pIC50 [3] was 6.08.

For N#CCc1cc(CNCCCCOC2CN(c3cc(-n4cnnc4)cc4[nH]ncc34)C2)cc(OC(F)(F)F)c1 [Example 147, 2-(3-(((4-((1-(6-(4H-1,2,4-triazol-4-yl)-1H-indazol-4-yl)azetidin-3-yl)oxy)butyl)amino)methyl)-5-(trifluoromethoxy)phenyl)acetonitrile], the pIC50 [1] was 8.06, the pIC50 [2] was 6.52 and the pIC50 [3] was 6.28.

FC(F)(F)Oc1ccc(CNCCCCOC2CN(c3cc(-c4ccnnc4)cc4[nH]nnc34)C2)cc1Cl [Example 150, N-(3-chloro-4-(trifluoromethoxy)benzyl)-4-((1-(6-(pyridazin-4-yl)-1H-benzo[d][1,2,3]triazol-4-yl)azetidin-3-yl)oxy)butan-1-amine] was tested, and the pIC50 [1] was 6.47, the pIC50 [2] was 4.75 and the pIC50 [3] was 4.41.

FC(F)(F)Oc1ccc(CNCCCCOC2CN(c3cc(-n4cnnc4)cc4[nH]nnc34)C2)cc1Cl [Example 153, 4-((1-(6-(4H-1,2,4-triazol-4-yl)-1H-benzo[d][1,2,3]triazol-4-yl)azetidin-3-yl)oxy)-N-(3-chloro-4-(trifluoromethoxy)benzyl)butan-1-amine] was tested, and the pIC50 [1] was 6.87, the pIC50 [2] was 4.93 and the pIC50 [3] was 4.47.

O=C(CCNCc1ccc(C2CC2)c(CO)c1)NCCCNc1cc(-n2cnnc2)cc2[nH]ncc12 [Example 77, N-(3-((6-(4H-1,2,4-triazol-4-yl)-1H-indazol-4-yl)amino)propyl)-3-((4-cyclopropyl-3-(hydroxymethyl)benzyl)amino)propanamide] was tested, and the pIC50 [1] was 8.24, the pIC50 [2] was 7.02 and the pIC50 [3] was < 4.30.

Compound Fc1cc(CNCCCCOC2CN(c3cc(-c4cnoc4)cc4[nH]ncc34)C2)ccc1OC(F)(F)F [Example 135, N-(3-fluoro-4-(trifluoromethoxy)benzyl)-4-((1-(6-(isoxazol-4-yl)-1H-indazol-4-yl)azetidin-3-yl)oxy)butan-1-amine] has a pIC50 [1] of 7.88, a pIC50 [2] of 6.64 and a pIC50 [3] of 5.74.

With Cn1c(CNCCCCOCCNc2cc(-n3cnnc3)cc3[nH]ncc23)nc2ccc(Cl)cc21 [Example 68, N-(2-(4-(((6-chloro-1-methyl-1H-benzo[d]imidazol-2-yl)methyl)amino)butoxy)ethyl)-6-(4H-1,2,4-triazol-4-yl)-1H-indazol-4-amine] the pIC50 [1] was 6.86, the pIC50 [2] was 6.25 and the pIC50 [3] was 4.73.

With O=C(CCNCc1ccc(-c2ccccc2)c(Cl)c1)NCCCNc1cccc2[nH]ncc12 [Example 61, N-(3-((1H-indazol-4-yl)amino)propyl)-3-(((2-chloro-[1,1′-biphenyl]-4-yl)methyl)amino)propenamide] the pIC50 [1] was 6.98, the pIC50 [2] was 5.46 and the pIC50 [3] was 6.75.
